Some results are limits rather than exact numbers.

Chain of I-Ak (P01910 whole entry, looked up): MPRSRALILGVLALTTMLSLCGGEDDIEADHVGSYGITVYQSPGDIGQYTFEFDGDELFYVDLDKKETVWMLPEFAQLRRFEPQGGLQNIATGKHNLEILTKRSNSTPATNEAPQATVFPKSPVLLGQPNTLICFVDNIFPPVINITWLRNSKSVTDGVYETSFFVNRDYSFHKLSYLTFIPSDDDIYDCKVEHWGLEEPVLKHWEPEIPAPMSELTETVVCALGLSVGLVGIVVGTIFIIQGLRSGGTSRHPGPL
Chain of I-Ak (P06343 whole entry, looked up): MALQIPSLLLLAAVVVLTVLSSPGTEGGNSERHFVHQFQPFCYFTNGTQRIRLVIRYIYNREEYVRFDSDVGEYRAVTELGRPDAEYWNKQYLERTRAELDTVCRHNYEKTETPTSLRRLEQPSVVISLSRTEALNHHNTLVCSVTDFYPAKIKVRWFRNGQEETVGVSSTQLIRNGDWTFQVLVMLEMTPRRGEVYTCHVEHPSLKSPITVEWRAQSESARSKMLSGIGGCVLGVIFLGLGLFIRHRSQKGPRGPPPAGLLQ

The test concerns the target I-Ak (Mus musculus, UniProt P01910+P06343). The test is described as follows: Percent of I-Ak occupied by each eluted self-peptide. As to conditions: I-Ak from thymus (cortical plus medullary epithelium) of C3H/HeJ mice; Table 1.
As to xP_IDDGGIEA, the “Percent of MHC occupied in Thymus” value is on record as below 0.1%. On to e yiLYNKGIMGEdSYPY [Cathepsin H 77-], for which the “Percent of MHC occupied in Thymus” value turned out to be 0.2%. xQLGA_QNEMLxPV: the “Percent of MHC occupied in Thymus” value is below 0.1%. With k kGTD_FQLNQLEGKKG [Transferrin 103-], the “Percent of MHC occupied in Thymus” value is listed as 0.2%. a vvKKGTD_FQLNQLE [Transferrin 100-]: the “Percent of MHC occupied in Thymus” value stood at 0.3%.

Consider r sYLD_AwVcEQLAT [Fce Receptor 11 298-], for which the “Percent of MHC occupied in Thymus” value is below 0.1%.

Take n serHFV_HQFQPFcyF [A~ 3-]: the “Percent of MHC occupied in Thymus” value is listed as below 0.1%. For the substance xPL_ALQFAELPVNKG, the “Percent of MHC occupied in Thymus” value is on record as 0.2%.

Values taken from publication PMC2191300 (The Journal of Experimental Medicine, 1993).
